Source: patent US4962109A, “Insecticidally and acaricidally active pyrimidine esters and intermediates therefor” (Imperial Chemical Industries PLC, priority 1985, dated 1990)

How the values were obtained:
Assay type in all cases: in vivo
[1] = tested on: Tetranychus urticae (spider mites - ova); test: Contact test on spider mites - ova (TUe), French bean leaf, mortality; conditions: 144 h, contact, 6 days, read-out: TUe grading of mortality
Description: (§1) The activity of the Product was determined using a variety of insect pests. The Product was used in the form of liquid preparations containing 500, 250 or 100 parts per million (ppm) by weight of the Product. The preparations were made by dissolving the Product in acetone and diluting the solutions with water containing 0.01% by weight of a wetting agent sold under the trade name "LISSAPOL" NX until the liquid preparations contained the required concentration of the Product. "Lissapol" is a Registered Trade Mark.
(§2) The test procedure adopted with regard to each pest was basically the same and comprised supporting a number of the pests on a medium which was usually a host plant or a foodstuff on which the pests feed, and treating either or both the pests and the medium with the preparations. The mortality of the pests was then assessed at periods usually varying from one to three days after the treatment.
(§3) The results of the tests are given in Table III for each of the Products, at the rate in parts per million given in the second column as a grading of mortality designated as A, B or C wherein A indicates 80-100% mortality or knockdown, B indicates 50-79% mortality or knockdown and C indicates less than 50% mortality or knockdown.

[2] = tested on: Diabrotica balteata (rootworm larvae); test: Residual test on rootworm larvae (DB), Filter paper/maize seed, mortality; conditions: 48 h, residual, 2 days, read-out: DB grading of mortality
Description: as §1, §2, §3

[3] = tested on: Nephotettix cincticeps (green leaf hopper - nymphs); test: Contact test on green leaf hopper nymphs (NC), Rice plant, mortality; conditions: 48 h, 500 ppm, contact, 2 days, read-out: NC grading of mortality
Description: as §1, §2, §3
NC Nephotettix cincticeps

[4] = tested on: Heliothis virescens (tobacco budworm - larvae); test: Residual test on tobacco budworm larvae (HV), Cotton leaf, mortality; conditions: 48 h, read-out: HV grading of mortality
Description: as §1, §2, §3
(tobacco budworm - larvae)

[5] = tested on: Blattella germanica (cockroach nymphs); test: Contact test on cockroach nymphs (BG/C), Plastic pot, mortality; conditions: 48 h, contact, 2 days, read-out: BG/C grading of mortality
Description: as §1, §2, §3
BG/C Blattella germanica

[6] = tested on: Musca domestica (houseflies - adults); test: Knockdown test on houseflies - adults (MD/KD), Cotton wool/sugar; conditions: 500 ppm, 4 hours, read-out: MD/KD grading of knockdown
Description: as §1, §2
In the case of the species Musca domestica (housefly), additional tests to determine the knockdown effect of the compounds were performed. PG,163
as §3

Myzus persicae (aphids) = test: Contact test on aphids (MP), Chinese Cabbage leaf, mortality; conditions: 72 h, contact, 3 days, read-out: MP grading of mortality
Description: as §1, §2, §3

[7] = tested on: Spodoptera exigua (lesser army worm - larvae); test: Residual test on lesser army worm larvae (SP), Cotton leaf, mortality; conditions: 48 h, residual, 2 days, read-out: SP grading of mortality
Description: as §1, §2, §3
(lesser army worm - larvae)

[8] = tested on: Tetranychus urticae (spider mites - adult); test: Contact test on spider mites - adult (TUa), French bean leaf, mortality; conditions: 72 h, contact, 3 days, read-out: TUa grading of mortality
Description: as §1, §2, §3

[9] = tested on: Musca domestica (houseflies - adults); test: Contact test on houseflies - adults (MD), Cotton wool/sugar, mortality; conditions: 72 h, 500 ppm, contact, 3 days, read-out: MD grading of mortality
Description: as §1, §2, §3

Structure (SMILES)	mortality at 500 ppm [1] [%]	mortality at 500 ppm [2] [%]	mortality at 500 ppm [3] [%]	mortality at 500 ppm [4] [%]	mortality at 500 ppm [5] [%]	pest or weed control at 500 ppm [6] [%]	mortality at 500 ppm (Myzus persicae (aphids)) [%]	mortality at 500 ppm [7] [%]	mortality at 500 ppm [8] [%]	mortality at 500 ppm [9] [%]	mortality at 100 ppm ([1]; 100 ppm) [%]	mortality at 100 ppm ([2]; 100 ppm) [%]	mortality at 100 ppm [4] [%]	mortality at 100 ppm ([5]; 100 ppm) [%]	mortality at 100 ppm (Myzus persicae (aphids); 100 ppm) [%]	mortality at 100 ppm ([7]; 100 ppm) [%]	mortality at 100 ppm ([8]; 100 ppm) [%]
CC(C)(C)c1ncc(C(C(=O)OCc2cccc(Oc3ccccc3)c2)C(C)(C)C)cn1 (racemic) [Compound 1, 3-phenoxybenzyl (RS)-2-[2-(1,1,-dimethylethyl)pyrimidin-5-yl]-3,3-dimethylbutanoate]	80 to 100	< 50	80 to 100	80 to 100	< 50	80 to 100	80 to 100	< 50	80 to 100	< 50							
CC(C)(C)c1ncc(C(C(=O)OC(C#N)c2cccc(Oc3ccccc3)c2)C(C)(C)C)cn1 (racemic) [Compound 2, (RS)-1-cyano-1-(3-phenoxphenyl)methyl (RS)-2-[2-(1,1-dimethylethyl)pyrimidin-5-yl]-3,3-dimethylbutanoate]	< 50	80 to 100	80 to 100	80 to 100	< 50	< 50	80 to 100	80 to 100	80 to 100	80 to 100							
Cc1c(COC(=O)C(c2cnc(C(C)(C)C)nc2)C(C)(C)C)cccc1-c1ccccc1 (racemic) [Compound 3, 2-methyl-3-phenylbenzyl (RS)-2-[2-(1,1-dimethylethyl)pyrimidin-5-yl]-3,3-dimethylbutanoate]	80 to 100	< 50	80 to 100	50 to 79	< 50	< 50	< 50	80 to 100	80 to 100	< 50							
C=CCc1c(F)c(F)c(COC(=O)C(c2cnc(C(C)(C)C)nc2)C(C)(C)C)c(F)c1F (racemic) [Compound 5, 4-(prop-2-en-1-yl)-2,3,5,6-tetrafluorobenzyl (RS)-2-[2-(1,1-dimethylethyl)pyrimidin-5-yl]-3,3-dimethylbutanoate]	< 50	< 50	50 to 79	50 to 79	< 50	50 to 79	80 to 100	80 to 100	80 to 100	< 50							
CC(C)(C)c1ncc(C(C(=O)OCN2C(=O)C3=C(CCCC3)C2=O)C(C)(C)C)cn1 (racemic) [Compound 6, N-3,4,5,6-tetrahydrophthalimidomethyl (RS)-2-[2-(1,1-dimethylethyl)pyrimidin-5-yl]-3,3-dimethylbutanoate]		50 to 79	< 50	< 50	< 50	< 50	< 50	< 50	80 to 100	< 50							
CC(C)(C)c1ncc(C(C(=O)OCc2cccc(Oc3ccccc3)n2)C(C)(C)C)cn1 (racemic) [Compound 9, (6-phenoxypyrid-2-yl)methyl (RS)-2-[2-(1,1-dimethylethyl)pyrimidin-5-yl]-3,3-dimethylbutanoate]	80 to 100	50 to 79	80 to 100	80 to 100	50 to 79	80 to 100	80 to 100	80 to 100	80 to 100	80 to 100							
C[C@@H](OC(=O)[C@@H](c1cnc(C(C)(C)C)nc1)C(C)(C)C)c1cccc(Oc2ccccc2)n1 (racemic) [Compound 11, (RS)-1-(6-phenoxypyrid-2-yl)ethyl (RS)-2-[2-(1,1-dimethylethyl)pyrimidin-5-yl]-3,3-dimethylbutanoate]	80 to 100	80 to 100	80 to 100	80 to 100	< 50	80 to 100	80 to 100	80 to 100	80 to 100	80 to 100							
CC(C)(C)c1ncc(C(C(=O)OCc2c(F)c(F)c(CC=CCl)c(F)c2F)C(C)(C)C)cn1 (racemic) [Compound 14, 4-(EZ-3-chloroprop-2-en-1-yl)-2,3,5,6-tetrafluorobenzyl (RS)-2-[(1,1-dimethylethyl)pyrimidin-5-yl)-3,3-dimethylbutanoate]	< 50	< 50	80 to 100	80 to 100	< 50	50 to 79	80 to 100	< 50	80 to 100	80 to 100							
CC(C)(C)c1ncc(C(C(=O)OCc2ccc(F)c(Cc3ccccc3)c2)C(C)(C)C)cn1 (racemic) [Compound 18, 3-benzyl-4-fluorobenzyl (RS)-2-[2-(1,1-dimethylethyl)pyrimidin-5-yl]-3,3-dimethylbutanoate]	< 50	80 to 100	80 to 100	80 to 100	< 50	80 to 100	80 to 100	80 to 100	80 to 100	< 50							
CC(C)(C)c1ncc(C(C(=O)OCc2ccc(F)c(Oc3ccccc3)c2)C(C)(C)C)cn1 (racemic) [Compound 25, 4-fluoro-3-phenoxybenzyl (RS)-2-[2-(1,1-dimethylethyl)pyrimidin-5-yl]-3,3-dimethylbutanoate]	80 to 100	50 to 79	80 to 100	80 to 100	< 50	80 to 100	80 to 100	80 to 100	80 to 100	< 50							
CC(C)(C)c1ncc(C(C(=O)OCc2c(F)cccc2Cl)C(C)(C)C)cn1 (racemic) [Compound 26, 2-chloro-6-fluorobenzyl (RS)-2-[2-(1,1-dimethylethyl)pyrimidin-5-yl]-3,3-dimethylbutanoate]	80 to 100	80 to 100	80 to 100	< 50	< 50	80 to 100	50 to 79	80 to 100	80 to 100	80 to 100							
CC(C)(C)c1ncc(C(C(=O)OCc2c(F)c(F)c(CCl)c(F)c2F)C(C)(C)C)cn1 (racemic) [Compound 167, 4-chloromethyl-2,3,5,6-tetrafluorobenzyl (RS)-2-[2-(1,1-dimethylethyl)pyrimidin-5-yl]-3,3-dimethylbutanoate]	80 to 100	80 to 100		80 to 100	< 50	< 50	80 to 100	80 to 100	80 to 100	< 50							
CCC(C)(C)C(C(=O)OCc1c(F)c(F)c(COC)c(F)c1F)c1cnc(C(C)(C)C)nc1 (racemic) [Compound 210, 4-methoxymethyl-2,3,5,6-tetrafluorobenzyl (RS)-2-[2-(1,1-dimethylethyl)-pyrimidin-5-yl]-3,3-dimethylpentanoate]											80 to 100	< 50	< 50	< 50	< 50	< 50	80 to 100
